Read-outs that look alike come from different tables or passages of the source.
Key:
HepG2 cells = experiment: HepG2 cytotoxicity counter-screen; conditions: cytotoxic activity against HepG2 cells
[1] = tested on: P. falciparum female gametocytes; experiment: P. falciparum Dual Gamete Formation Assay (PfDGFA), female readout (Pfs25-positive female gametes); assay type: cell-based, Plasmodium falciparum NF54; conditions: for Selectivity ratio F: HepG2 Tox50 versus female IC50; for IC50: PfDGFA, 24 h incubation with gametocytes before induction, female gamete readout, read-out: Female IC50; for HitlevelF: number of replicates with >50% inhibition in the female readout
Procedure, shortened: (§1)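 First, day-14 P. falciparum NF54 gametocytes receive compound for 24 h at 37°C in 1% O2/3% CO2. Next, ookinete medium with Cy3 anti-Pfs25 triggers gametogenesis at 28°C and male exflagellation is imaged. Finally, after 24 h in the dark, Cy3-labelled females are imaged.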

[2] = tested on: P. falciparum male gametocytes; experiment: P. falciparum Dual Gamete Formation Assay (PfDGFA), male readout (exflagellation); assay type: cell-based, Plasmodium falciparum NF54; conditions: for Selectivity Ratio M: HepG2 Tox50 versus male IC50; for % inhibition male (individual replicates) R3: replicate R3; for IC50: PfDGFA, 24 h incubation with gametocytes before induction, exflagellation readout, read-out: Male IC50; for HitlevelM: number of replicates with >50% inhibition in the male readout
Procedure, shortened: as §1

[3] = PfDGFA at 2µM, 24h preincubation with gametocytes, average of replicates
[4] = PfDGFA at 2µM, 24h preincubation with gametocytes, replicate R1
[5] = PfDGFA at 2µM, 24h preincubation with gametocytes, replicate R3
[6] = PfDGFA at 2µM, 24h preincubation with gametocytes, replicate R4
[7] = PfDGFA at 2µM, 24h preincubation with gametocytes
[8] = 2µM, 24h preincubation with gametocytes prior to induction of gametogenesis, average of replicates
[9] = 2µM, 24h preincubation with gametocytes prior to induction of gametogenesis, replicate R1
[10] = 2µM, 24h preincubation with gametocytes prior to induction of gametogenesis, replicate R4
[11] = 2µM, 24h preincubation with gametocytes, average of replicates
[12] = 2µM, 24h preincubation with gametocytes, replicate R1
[13] = 2µM, 24h preincubation with gametocytes, replicate R3
[14] = 2µM, 24h preincubation with gametocytes, replicate R4
[15] = 2µM, 24h preincubation with gametocytes

SMILES: COc1cc(NC(=O)c2sc(-c3ccc(Cl)cc3)cc2NC(=O)c2ccncc2)ccc1OCCN1CCCC1 [TCMDC-135398]
- Tox50 (HepG2 cells): 6.24 µM
- Selectivity ratio F [1]: 2.54
- Average inhibition female (%) [1, 3]: 76.4%
- % inhibition female (individual replicates) R1 [1, 4]: 76.9%
- % inhibition female (individual replicates) R3 [1, 5]: 72.6%
- % inhibition female (individual replicates) R4 [1, 6]: 86.6%
- IC50 [1]: 2460 nM
- HitlevelF ([1]; 2µM): 4
- Selectivity Ratio M [2]: 3.15
- Average inhibition male (%) [2, 3]: 74.1%
- % inhibition male (individual replicates) R1 [2, 4]: 92.1%
- % inhibition male (individual replicates) R3 [2, 7]: 87.5%
- % inhibition male (individual replicates) R4 [2, 6]: 101.9%
- IC50 [2]: 1980 nM
- HitlevelM ([2]; 2µM): 3

SMILES: O=C(Nc1cccc(-c2nn3ncccc3c2-c2ccnc(Nc3cccc(-c4cnco4)c3)n2)c1)c1c(F)cccc1F [TCMDC-135550]
- Tox50 (HepG2 cells): 1.85 µM
- Average inhibition female (%) [1, 8]: -4.1%
- % inhibition female (individual replicates) R1 [1, 9]: -3.8%
- % inhibition female (individual replicates) R3 ([1]; 2µM, 24h preincubation with gametocytes prior to induction of gametogenesis, replicate R3): -14.6%
- % inhibition female (individual replicates) R4 [1, 10]: 0.16%
- HitlevelF ([1]; 2µM, 24h preincubation): 0
- Selectivity ratio F [1]: 0.18
- Average inhibition male (%) [2, 8]: 55.8%
- % inhibition male (individual replicates) R1 [2, 9]: 81.6%
- % inhibition male (individual replicates) R3 ([2]; 2µM, 24h preincubation with gametocytes prior to induction of gametogenesis): 54.6%
- % inhibition male (individual replicates) R4 [2, 10]: 6.2%
- HitlevelM ([2]; 2µM, 24h preincubation): 3
- Selectivity Ratio M [2]: 4.7
- IC50 [2]: 390 nM

SMILES: COc1cc(Nc2nccc(-c3c(-c4cccc(NC(=O)c5c(F)cccc5F)c4)nn4ncccc34)n2)cc(OC)c1OC [TCMDC-135684]
- Tox50 (HepG2 cells): 1.17 µM
- Average inhibition female (%) [1, 11]: 9.6%
- % inhibition female (individual replicates) R1 [1, 12]: 8.4%
- % inhibition female (individual replicates) R3 [1, 13]: 15.7%
- % inhibition female (individual replicates) R4 [1, 14]: 19.8%
- Selectivity ratio F [1]: 0.12
- Average inhibition male (%) [2, 11]: 97.0%
- % inhibition male (individual replicates) R1 [2, 12]: 96.5%
- % inhibition male (individual replicates) R3 [2, 15]: 98.0%
- % inhibition male (individual replicates) R4 [2, 14]: 98.2%
- Selectivity Ratio M [2]: 4.28
- IC50 [2]: 270 nM

SMILES: CCn1c(-c2nonc2N)nc2c(-c3ccccc3)ncc(OCCCNCCCN3CCOCC3)c21.O=C(O)C(F)(F)F [TCMDC-135858]
- Tox50 (HepG2 cells): 16.12 µM
- Selectivity ratio F [1]: 2.48
- inhibition at 2 µM ([1]; Plasmodium falciparum, PfDGFA at 2µM, 24h preincubation with gametocytes, average of replicates, read-out: Average inhibition female (%)): 23%
- inhibition at 2 µM ([1]; Plasmodium falciparum, PfDGFA at 2µM, 24h preincubation with gametocytes, replicate R1, read-out: % inhibition female (individual replicates) R1): 22.7%
- inhibition at 2 µM ([1]; Plasmodium falciparum, PfDGFA at 2µM, 24h preincubation with gametocytes, replicate R2, read-out: % inhibition female (individual replicates) R2): 28.7%
- inhibition at 2 µM ([1]; Plasmodium falciparum, PfDGFA at 2µM, 24h preincubation with gametocytes, replicate R3, read-out: % inhibition female (individual replicates) R3): 18.7%
- inhibition at 2 µM ([1]; Plasmodium falciparum, PfDGFA at 2µM, 24h preincubation with gametocytes, replicate R4, read-out: % inhibition female (individual replicates) R4): 21.9%
- IC50 ([1]; Plasmodium falciparum): 6490 nM
- HitlevelF ([1]; 2µM): 0
- Selectivity Ratio M [2]: 11.73
- inhibition at 2 µM ([2]; Plasmodium falciparum, PfDGFA at 2µM, 24h preincubation with gametocytes, average of replicates, read-out: Average inhibition male (%)): 85.1%
- inhibition at 2 µM ([2]; Plasmodium falciparum, PfDGFA at 2µM, 24h preincubation with gametocytes, replicate R1, read-out: % inhibition male (individual replicates) R1): 80.4%
- inhibition at 2 µM ([2]; Plasmodium falciparum, PfDGFA at 2µM, 24h preincubation with gametocytes, replicate R2, read-out: % inhibition male (individual replicates) R2): 88.6%
- inhibition at 2 µM ([2]; Plasmodium falciparum, PfDGFA at 2µM, 24h preincubation with gametocytes, replicate R4, read-out: % inhibition male (individual replicates) R4): 86.5%
- IC50 ([2]; Plasmodium falciparum): 1370 nM
- HitlevelM ([2]; 2µM): 3

SMILES: CS(=O)(=O)O.FC(F)(F)COc1c(CCNCCCCNCCc2ccc3ccccc3c2OCC(F)(F)F)ccc2ccccc12 [TCMDC-137169]
- Tox50 (HepG2 cells): 2.63 µM
- Average inhibition female (%) [1, 11]: 87.0%
- % inhibition female (individual replicates) R1 [1, 12]: 87.1%
- % inhibition female (individual replicates) R3 [1, 13]: 97.3%
- % inhibition female (individual replicates) R4 [1, 14]: 102.2%
- Selectivity ratio F [1]: 2.09
- IC50 [1]: 1260 nM
- Average inhibition male (%) [2, 11]: 91.7%
- % inhibition male (individual replicates) R1 [2, 12]: 101.1%
- % inhibition male (individual replicates) R3 [2, 15]: 96.8%
- % inhibition male (individual replicates) R4 [2, 14]: 99.1%
- Selectivity Ratio M [2]: 3.23
- IC50 [2]: 810 nM

SMILES: CCN(CC)CCOc1ccc(C(O)(C#CC(O)(c2ccc(C)cc2)c2ccc(OCCN(CC)CC)cc2)c2ccc(C)cc2)cc1 (stereo not shown) [TCMDC-137198]
- Tox50 (HepG2 cells): 2.63 µM
- Selectivity ratio F [1]: 0.55
- Average inhibition female (%) [1, 3]: 31.2%
- % inhibition female (individual replicates) R1 [1, 4]: 31.1%
- % inhibition female (individual replicates) R3 [1, 5]: 8.3%
- % inhibition female (individual replicates) R4 [1, 6]: 48.8%
- IC50 [1]: 4730 nM
- HitlevelF ([1]; 2µM): 0
- Selectivity Ratio M [2]: 2.02
- Average inhibition male (%) [2, 3]: 80.0%
- % inhibition male (individual replicates) R1 [2, 4]: 79.9%
- % inhibition male (individual replicates) R3 [2, 7]: 84.8%
- % inhibition male (individual replicates) R4 [2, 6]: 81.8%
- IC50 [2]: 1300 nM
- HitlevelM ([2]; 2µM): 4

SMILES: CCN(CC)CCOc1ccc(C(O)(C#CC(O)(c2ccc(Br)cc2)c2ccc(OCCN(CC)CC)cc2)c2ccc(Br)cc2)cc1 (stereo not shown) [TCMDC-137199]
- Tox50 (HepG2 cells): 1.99 µM
- Selectivity ratio F [1]: 1.56
- Average inhibition female (%) [1, 3]: 19.7%
- % inhibition female (individual replicates) R1 [1, 4]: 20.5%
- % inhibition female (individual replicates) R3 [1, 5]: 18.5%
- % inhibition female (individual replicates) R4 [1, 6]: 25.4%
- IC50 [1]: 1270 nM
- HitlevelF ([1]; 2µM): 0
- Selectivity Ratio M [2]: 3.23
- Average inhibition male (%) [2, 3]: 78.4%
- % inhibition male (individual replicates) R1 [2, 4]: 76.2%
- % inhibition male (individual replicates) R3 [2, 7]: 84.3%
- % inhibition male (individual replicates) R4 [2, 6]: 81.8%
- IC50 [2]: 610 nM
- HitlevelM ([2]; 2µM): 4

SMILES: CCN(CC)CCOc1ccc(C(O)(C#CC(O)(c2ccc(OCCN(CC)CC)cc2)c2ccc([N+](=O)[O-])cc2)c2ccc([N+](=O)[O-])cc2)cc1 (stereo not shown) [TCMDC-137201]
- Tox50 (HepG2 cells): 3.49 µM
- Selectivity ratio F [1]: 1.17
- Average inhibition female (%) [1, 3]: 55.9%
- % inhibition female (individual replicates) R1 [1, 4]: 46.7%
- % inhibition female (individual replicates) R3 [1, 5]: 67.0%
- % inhibition female (individual replicates) R4 [1, 6]: 64.5%
- IC50 [1]: 2990 nM
- HitlevelF ([1]; 2µM): 2
- Selectivity Ratio M [2]: 2.26
- Average inhibition male (%) [2, 3]: 85.9%
- % inhibition male (individual replicates) R1 [2, 4]: 82.3%
- % inhibition male (individual replicates) R3 [2, 7]: 94.6%
- % inhibition male (individual replicates) R4 [2, 6]: 93.0%
- IC50 [2]: 1540 nM
- HitlevelM ([2]; 2µM): 4

From PMC10584170, “Machine learning-based phenotypic imaging to characterise the targetable biology of Plasmodium falciparum male gametocytes for the development of transmission-blocking antimalarials” (PLOS Pathogens, 2023)
